Reference: article PMC10018782, “Citrus β-carotene hydroxylase 2 (BCH2) participates in xanthophyll synthesis by catalyzing the hydroxylation of β-carotene and compensates for BCH1 in citrus carotenoid metabolism” (Horticulture Research, 2022)

Experiments:
Test in all cases: functional complementation in beta-carotene-accumulating E. coli, HPLC of carotenoids
Type in all cases: cell-based
Settings in all cases: E. coli BL21(DE3) with pACCAR16ΔcrtX, 16 °C, 16 h
CsBCH1 = target: T1, CsBCH1 (Citrus sinensis, UniProt Q0QVY5)
T1 construct: gene Chyb; full ORF in pHIS8 (His tag), E. coli BL21(DE3)
T1 sequence (Q0QVY5 1-311): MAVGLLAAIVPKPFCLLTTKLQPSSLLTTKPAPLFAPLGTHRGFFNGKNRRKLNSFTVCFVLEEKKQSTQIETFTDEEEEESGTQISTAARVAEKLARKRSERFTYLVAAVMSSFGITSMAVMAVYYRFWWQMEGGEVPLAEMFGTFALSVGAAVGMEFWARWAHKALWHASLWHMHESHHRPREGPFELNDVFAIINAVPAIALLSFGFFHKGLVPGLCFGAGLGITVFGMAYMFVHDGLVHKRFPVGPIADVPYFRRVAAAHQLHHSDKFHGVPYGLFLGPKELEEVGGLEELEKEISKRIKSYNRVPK

CsBCH2b = target: T2, CsBCH2b (Citrus sinensis, UniProt A0ACB8LPZ5)
T2 construct: gene KPL71_006397; full ORF in pHIS8 (His tag), E. coli BL21(DE3); allele found in pummelo and sweet orange, two non-synonymous sites versus CsBCH2a
T2 sequence (A0ACB8LPZ5 entry or part of it): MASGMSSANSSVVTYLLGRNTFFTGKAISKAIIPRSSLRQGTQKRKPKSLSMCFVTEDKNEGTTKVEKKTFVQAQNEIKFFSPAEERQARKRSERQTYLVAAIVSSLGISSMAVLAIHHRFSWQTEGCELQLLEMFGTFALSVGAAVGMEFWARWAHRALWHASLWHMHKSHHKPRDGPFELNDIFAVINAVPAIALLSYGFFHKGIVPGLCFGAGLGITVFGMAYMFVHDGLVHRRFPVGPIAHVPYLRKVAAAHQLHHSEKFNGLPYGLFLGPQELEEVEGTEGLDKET

CsBCH2a = target: T3, CsBCH2a (Citrus sinensis, UniProt A0ACB8LPZ5)
T3 construct: gene KPL71_006397; full ORF in pHIS8 (His tag), E. coli BL21(DE3); allele identical in mandarin and sweet orange, two non-synonymous sites versus CsBCH2b
T3 sequence (A0ACB8LPZ5 entry or part of it): as above

Compound	functional complementation in beta-carotene-accumulating E. coli, HPLC of carote (CsBCH1; intermediate formed in the cells, hydroxylated on to zeaxanthin)	functional complementation in beta-carotene-accumulating E. coli, HPLC of carote (CsBCH1)	functional complementation in beta-carotene-accumulating E. coli, HPLC of carote (CsBCH2b)	functional complementation in beta-carotene-accumulating E. coli, HPLC of carote (CsBCH2a)
CC1=C(/C=C/C(C)=C/C=C/C(C)=C/C=C/C=C(C)/C=C/C=C(C)/C=C/C2=C(C)C[C@@H](O)CC2(C)C)C(C)(C)CCC1 [β-cryptoxanthin]	mono-hydroxylated intermediate β-cryptoxanthin and the di-hydroxylated product zeaxanthin			
CC1=C(/C=C/C(C)=C/C=C/C(C)=C/C=C/C=C(C)/C=C/C=C(C)/C=C/C2=C(C)CCCC2(C)C)C(C)(C)CCC1 [β-carotene]		CsBCH1 effectively hydroxylated the two β-rings of β-carotene	CsBCH2a and CsBCH2b hydroxylated β-carotene to generate only β-cryptoxanthin in E. coli	CsBCH2a and CsBCH2b hydroxylated β-carotene to generate only β-cryptoxanthin in E. coli
